Test [1] deals with C. difficile PBP3. Format: binding, Clostridioides difficile R20291. The settings on record: for PBP3 % inhibiton: 25 µM.
Test [2] relates to Ldt2. Description: Nitrocefin inhibition assay, Ldt2. Particulars: for Ldt2 % inhibiton: β-lactam at 25 uM, nitrocefin hydrolysis, two independent experiments, individual values; for Nitrcoefin hydrolysis vs inhibitor (reaction curve reading): Idt2, representative curve. Type of test: biochemical, Clostridioides difficile R20291. How it is done: Reactions were performed in a 96-well polystyrene plate with a final volume of 60 μL at 37 °C in 20 mM Tris pH 7, 200 mM NaCl. […] Protein was then added to the well for a final concentration of 1 µM and incubated for 15 min at 37 °C. 1 µL of nitrocefin (Millipore Sigma) was then added to each well for a final concentration of 20 µM, and reaction progress was monitored using a BioTek Cytation 5 plate reader (BioTek Instruments) at 488 nm and 37 °C for 1 h. Reaction rates were normalized to the control (no inhibitor) for % inhibition values. Assays were performed in duplicate and mean % inhibition values was calculated.

Test [3] relates to C. difficile strain R20291. Nature of the test: Minimum inhibitory concentration (MIC) determination. Particulars: for MIC: Clostridioides difficile, R20291, 24 h.
The test system of test [4] is Ldt3. Type of test: biochemical, Clostridioides difficile R20291. The settings on record: for Ldt3 % inhibiton / inhibition of Ldt3 (in words): 25 µM.

≈ marks a conversion by molar mass, not a printed value. Where “and” joins values, the source holds several entries; their conditions need not be identical. Identical values can stand only once. Entries after “also recorded” stand apart in the source; their conditions may differ. Like-named read-outs stand apart in the source and are kept apart here.

One may read the MIC as the lowest concentration found to suppress growth. On to `CC1(C)S[C@@H]2[C@H](NC(=O)[C@H](N)c3ccccc3)C(=O)N2[C@H]1C(=O)O` [ampicillin], for which the PBP3 % inhibiton in test [1] is 92.7496% and 89.9467% and 91.5944%. For the same molecule, in test [2] (listed as AMP, 25 µM), the Ldt2 % inhibiton was 1.643% and 4.064%. Further, in test [3], the “MIC (X)” value turned out to be 2 and 2 µg/mL (≈ 5.72 µM) was the least that counted as inhibitory (MIC).
Regarding `C[C@H]1[C@H](NC(=O)/C(=N\OC(C)(C)C(=O)O)c2csc(N)n2)C(=O)N1S(=O)(=O)O` [aztreonam], it took 256 µg/mL (≈ 588 µM) to inhibit growth in test [3] (MIC).
Consider `CO/N=C(\C(=O)N[C@@H]1C(=O)N2C(C(=O)O)=C(/C=C\c3scnc3C)CS[C@H]12)c1csc(N)n1` [cefditoren], for which, in test [1], the PBP3 % inhibiton was 82.5587% and 73.9018% and 78.609%. For the same molecule, in test [2] (listed as CDN, 25 µM), the Ldt2 % inhibiton was 13.9657% and 18.7883%. In test [4], the Ldt3 % inhibiton was 72.482% and 72.4793%; the “inhibition of Ldt3 (in words)” value was “best”. The same molecule displayed an MIC in test [3] of 16 µg/mL (≈ 31.6 µM).
As for `CO/N=C(\C(=O)N[C@@H]1C(=O)N2C(C(=O)O)=C(COC(C)=O)CS[C@H]12)c1csc(N)n1` [cefotaxime], the PBP3 % inhibiton in test [1] is 100.738% and 94.6733% and 99.7428%. In addition, in test [2] (listed as CTX, 25 µM), the Ldt2 % inhibiton was 12.8454% and 16.2577%. Further, in test [4], the Ldt3 % inhibiton is 7.194% and 11.4876%. In test [3], the “MIC (X)” value is on record as 256 and 256 µg/mL (≈ 562 µM) was the least that counted as inhibitory (MIC).
Take `CC(C)(O/N=C(\C(=O)N[C@@H]1C(=O)N2C(C(=O)[O-])=C(C[n+]3ccccc3)CS[C@H]12)c1csc(N)n1)C(=O)O` [ceftazidime]: the PBP3 % inhibiton in test [1] is 100% and 96.9383%. For the same molecule, in test [3], the MIC worked out at 256 µg/mL (≈ 468 µM).
For `Nc1nc(/C(=N/O)C(=O)N[C@@H]2C(=O)N3C(C(=O)O)=C(/C=C4\CCN([C@@H]5CCNC5)C4=O)CS[C@H]23)ns1` [ceftobiprole], the PBP3 % inhibiton in test [1] was 100% and 96.748%. For the same molecule, in test [2] (listed as BPR, 25 µM), the Ldt2 % inhibiton is 0% and 4.7546%. The Ldt3 % inhibiton in test [4] was 8.0036% and 4.298%. In test [3], this molecule came in with an MIC of 2 µg/mL (≈ 3.74 µM).
On to `CO/N=C(\C(=O)N[C@@H]1C(=O)N2C(C(=O)O)=C(CSc3nc(=O)c(=O)[nH]n3C)CS[C@H]12)c1csc(N)n1` [ceftriaxone], for which the PBP3 % inhibiton in test [1] is 101.93% and 95.7776% and 100%. In test [3], the minimal inhibitory concentration (MIC) turned out to be 32 µg/mL (≈ 57.7 µM).
As to `CO/N=C(\C(=O)N[C@@H]1C(=O)N2C(C(=O)O)=C(COC(N)=O)CS[C@H]12)c1ccco1` [cefuroxime], the PBP3 % inhibiton in test [1] is 99.6269% and 93.7981% and 97.4091%. In test [3], this molecule came in with an MIC of 128 µg/mL (≈ 302 µM).
Take `CC1=C(C(=O)O)N2C(=O)[C@@H](NC(=O)[C@H](N)c3ccccc3)[C@H]2SC1` [cephalexin]: in test [1], the “inhibition of PBP3 (in words)” value is given as “little to no biochemical inhibition; also recorded: no detectable inhibition”. Also, in test [2] (25 µM), the “inhibition of Ldt2 (in words)” value is recorded as “failing to inhibit”. Moreover, in test [2], the Ldt2 % inhibiton came to 0%. Also, in test [4], the Ldt3 % inhibiton is recorded as 0% and the “inhibition of Ldt3 (in words)” value was “failing to inhibit”. Besides, the MIC in test [3] was found to be 4 µg/mL (≈ 11.5 µM).
As for `CC(=O)OCC1=C(C(=O)O)N2C(=O)[C@@H](NC(=O)[C@H](N)c3ccccc3)[C@H]2SC1` [cephaloglycin], in test [1], the PBP3 % inhibiton is 95.4184% and 89.9822% and 93.12%. Further, the Ldt2 % inhibiton in test [2] was 0%. For the same molecule, the Ldt3 % inhibiton in test [4] was 9.353% and 13.9669%. In test [3], this molecule had a minimal inhibitory concentration (MIC) of 256 µg/mL (≈ 631 µM).
In the case of `CC(=O)OCC1=C(C(=O)O)N2C(=O)[C@@H](NC(=O)Cc3cccs3)[C@H]2SC1` [cephalothin], the PBP3 % inhibiton in test [1] was 97.9928% and 94.8412% and 96.842%. In test [2], this molecule gave a Ldt2 % inhibiton of 0%. The Ldt3 % inhibiton in test [4] is 13.1295% and 19.9174%. In test [3], this molecule registered a minimal inhibitory concentration (MIC) of 64 µg/mL (≈ 161 µM).
On to `Cc1onc(-c2ccccc2Cl)c1C(=O)N[C@@H]1C(=O)N2[C@@H]1SC(C)(C)[C@@H]2C(=O)O` [cloxacillin], for which, in test [1], the PBP3 % inhibiton is 82.7754% and 83.7053% and 84.4216%. Also, the “Nitrcoefin hydrolysis vs inhibitor (reaction curve reading)” value (“Nitrcoefin hydrolysis vs inhibitor” for short) was 0.044 in test [2] (time 0 s); 0.046 in test [2] (time 300 s); 0.048 in test [2] (time 600 s); 0.05 in test [2] (time 900 s); 0.051 in test [2] (time 1200 s); 0.053 in test [2] (time 1500 s). In addition, the “Nitrcoefin hydrolysis vs inhibitor” value in test [2] (time 1800 s) was found to be 0.054; in test [2] (time 2100 s) it was 0.056; in test [2] (time 2400 s), 0.057; in test [4] (time 0 s), 0.044; in test [4] (time 300 s), 0.045; in test [4] (time 600 s), 0.045. Also, the “Nitrcoefin hydrolysis vs inhibitor” value in test [4] (time 900 s), in test [4] (time 1200 s), in test [4] (time 1500 s), in test [4] (time 1800 s), in test [4] (time 2100 s) and in test [4] (time 2400 s) was 0.046 throughout. In addition, the Ldt2 % inhibiton in test [2] (listed as ClX, 25 µM) was 15.534% and 20.6288%. For the same molecule, in test [4], the Ldt3 % inhibiton was 89.2086% and 94.2975%. Moreover, the “inhibition of Ldt3 (in words)” value in test [4] was “best”. The minimum inhibitory concentration (MIC) in test [3] came to 16 µg/mL (≈ 36.7 µM).
Consider `C[C@@H](O)[C@H]1C(=O)N2C(C(=O)O)=C(S[C@@H]3CN[C@H](CNS(N)(=O)=O)C3)[C@H](C)[C@H]12` [doripenem], for which the PBP3 % inhibiton in test [1] was 95.9747% and 95.7759% and 97.3818%. Also, the “inhibition of Ldt2 (in words)” value in test [2] (25 µM) was “best inhibitors of Ldt2”. The “Nitrcoefin hydrolysis vs inhibitor” value in test [2] (time 0 s) is given as 0.043; in test [2] (time 300 s), 0.044; in test [2] (time 600 s), 0.045; in test [2] (time 900 s), 0.045; in test [2] (time 1200 s), 0.045; in test [2] (time 1500 s), 0.045. Also, the “Nitrcoefin hydrolysis vs inhibitor” value came out at 0.046 in test [2] (time 1800 s); 0.046 in test [2] (time 2100 s); 0.047 in test [2] (time 2400 s); 0.045 in test [4] (time 0 s); 0.046 in test [4] (time 300 s); 0.048 in test [4] (time 600 s). Moreover, the “Nitrcoefin hydrolysis vs inhibitor” value was determined as 0.049 in test [4] (time 900 s); 0.05 in test [4] (time 1200 s); 0.051 in test [4] (time 1500 s); 0.052 in test [4] (time 1800 s); 0.052 in test [4] (time 2100 s); 0.053 in test [4] (time 2400 s). Moreover, the Ldt2 % inhibiton in test [2] (listed as DOR, 25 µM) was 92.8305% and 93.0982%. Also, the Ldt3 % inhibiton in test [4] is 49.0108% and 45.9504%. This molecule registered a minimal inhibitory concentration (MIC) in test [3] of 1 µg/mL (≈ 2.38 µM).
In the case of `C[C@@H](O)[C@H]1C(=O)N2C(C(=O)O)=C(SCCN=CN)C[C@H]12` [imipenem], in test [1], the PBP3 % inhibiton was 83.9601% and 87.3785% and 88.7659%. Moreover, the Ldt2 % inhibiton in test [2] (listed as IMI, 25 µM) is 15.7605% and 16.7178%. The molecule further came in with an MIC in test [3] of 128 µg/mL (≈ 428 µM).
Regarding `COc1cccc(OC)c1C(=O)N[C@@H]1C(=O)N2[C@@H]1SC(C)(C)[C@@H]2C(=O)O` [methicillin], the PBP3 % inhibiton in test [1] was 92.4606% and 92.3713% and 94.0819%. Moreover, in test [3], the lowest concentration to inhibit growth (MIC) was 8 µg/mL (≈ 21 µM).

The values are drawn from paper PMC9334274, “A unique class of Zn^2+-binding serine-based PBPs underlies cephalosporin resistance and sporogenesis in Clostridioides difficile” (Nature Communications, 2022).
